Patent publication US20260365671A1, “HETEROCYCLIC COMPOUND” (Takeda Pharmaceutical Company Limited, priority 2022, published 2026)

How the values were obtained:
[1] = system: NF-κB pathway; experiment: TNF-α assay (THP-1 cells differentiated to macrophages with IFN-γ, NF-κB pathway activated with LPS; ELISA); format: cell-based, Human; settings: compound 30 min, 50 ng/mL LPS 3 hours
Summary of the method: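 TNF-α release measured by ELISA after 3 h stimulation with 50 ng/mL LPS, following 30 min compound pretreatment (37 °C, no FBS). Cells were THP-1 macrophages primed with IFN-γ 25 ng/mL for 24 h. IC50 derived by logistic curve fit.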

[2] = target: T1, NLRP3 inflammasome (Homo sapiens, UniProt Q96P20); experiment: IL-1β TR-FRET assay (THP-1 cells differentiated to macrophages with IFN-γ, LPS primed, ATP activated; HTRF); format: cell-based; settings: THP-1 macrophages, 50 ng/mL LPS priming, compound 30 min, 20 mM ATP 2 hours
T1 construct: IL-1beta HTRF
Summary of the method: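 IL-1β release was read by HTRF after 16–24 h antibody incubation at room temperature, using supernatants from THP-1-derived macrophages (IFN-γ 25 ng/mL, LPS 50 ng/mL priming) given compound 30 min and then 20 mM ATP for 2 h. % inhibition versus concentration was fitted logistically for IC50.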

[3] = Homo sapiens, THP-1, THP-1 macrophages

T1 sequence (Q96P20 whole entry): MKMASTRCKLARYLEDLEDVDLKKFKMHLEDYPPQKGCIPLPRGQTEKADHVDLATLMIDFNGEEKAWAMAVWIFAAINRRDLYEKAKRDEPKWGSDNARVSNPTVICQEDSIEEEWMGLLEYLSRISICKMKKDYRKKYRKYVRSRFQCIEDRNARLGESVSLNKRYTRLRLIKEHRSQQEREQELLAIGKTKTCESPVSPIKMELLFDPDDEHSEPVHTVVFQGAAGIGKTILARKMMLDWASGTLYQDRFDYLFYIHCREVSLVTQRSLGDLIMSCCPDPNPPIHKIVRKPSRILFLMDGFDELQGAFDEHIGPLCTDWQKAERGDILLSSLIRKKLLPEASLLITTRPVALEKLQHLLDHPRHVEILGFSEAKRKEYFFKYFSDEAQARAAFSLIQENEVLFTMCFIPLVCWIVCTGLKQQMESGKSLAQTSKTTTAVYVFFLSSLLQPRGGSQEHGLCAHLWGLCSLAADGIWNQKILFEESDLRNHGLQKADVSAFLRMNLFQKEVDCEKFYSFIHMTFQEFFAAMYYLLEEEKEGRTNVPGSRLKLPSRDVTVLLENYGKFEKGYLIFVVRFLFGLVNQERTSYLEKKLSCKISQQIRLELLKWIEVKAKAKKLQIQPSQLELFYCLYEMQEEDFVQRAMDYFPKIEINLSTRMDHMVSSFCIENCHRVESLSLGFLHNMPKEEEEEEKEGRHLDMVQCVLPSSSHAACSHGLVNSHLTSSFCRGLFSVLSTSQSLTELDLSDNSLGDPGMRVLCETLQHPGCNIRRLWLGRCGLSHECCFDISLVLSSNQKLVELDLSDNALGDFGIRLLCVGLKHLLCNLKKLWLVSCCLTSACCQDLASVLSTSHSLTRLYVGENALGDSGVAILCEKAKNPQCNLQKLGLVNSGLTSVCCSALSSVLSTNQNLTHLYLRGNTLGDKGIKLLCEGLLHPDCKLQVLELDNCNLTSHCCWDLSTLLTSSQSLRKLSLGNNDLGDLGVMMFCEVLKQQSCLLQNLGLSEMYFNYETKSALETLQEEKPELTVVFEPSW

| Structure (SMILES) | IC50 [1, 3] | IC50 [2] | IC50 ([1]; THP-1 macrophages) |
| --- | --- | --- | --- |
| Cc1cc(C)c(-n2cc3sc(N[C@H]4C[C@@H](F)CN(C)C4)nc3n2)c(O)c1 [Example 178, 2-(5-{[(3S,5R)-5-fluoro-1-methylpiperidin-3-yl]amino}-2H-pyrazolo[3,4-d][1,3]thiazol-2-yl)-3,5-dimethylphenol] | > 30000 nM | 8400 nM | – |
| Cc1cc(C)c(-n2cc3sc(NC4CCN(C(=O)C5CC5)C4)nc3n2)c(O)c1 (stereo not drawn) [Example 96, cyclopropyl(3-{[2-(2-hydroxy-4,6-dimethylphenyl)-2H-pyrazolo[3,4-d][1,3]thiazol-5-yl]amino}pyrrolidin-1-yl)methanone] | > 30000 nM | 400 nM | – |
| Cc1cc(F)cc(O)c1-n1cc2sc(N[C@@H]3CCCN(C4CC4)C3)nc2n1 [Example 12, 2-(5-{[(3R)-1-cyclopropylpiperidin-3-yl]amino}-2H-pyrazolo[3,4-d][1,3]thiazol-2-yl)-5-fluoro-3-methylphenol] | > 10000 nM | 3.6 nM | – |
| Cc1cc(C)c(-n2cc3sc(N[C@@H]4CCCN(C(=O)OCC(Cl)(Cl)Cl)C4)nc3n2)c(O)c1 [Example 27, 2,2,2-trichloroethyl (3R)-3-{[2-(2-hydroxy-4,6-dimethylphenyl)-2H-pyrazolo[3,4-d][1,3]thiazol-5-yl]amino}piperidine-1-carboxylate] | 6300 nM | 620 nM | – |
| Cc1cc(C)c(-n2cc3sc(NC4CCN(CC(F)F)CC4)nc3n2)c(O)c1 [Example 129, 2-(5-{[1-(2,2-difluoroethyl)piperidin-4-yl]amino}-2H-pyrazolo[3,4-d][1,3]thiazol-2-yl)-3,5-dimethylphenol] | > 10000 nM | 2300 nM | – |
| Cc1cc(C)c(-n2cc3sc(N[C@H]4CN(C)CCC4F)nc3n2)c(O)c1 (stereo in doubt) [Example 10, 2-(5-{[(3S,4S)-4-fluoro-1-methylpiperidin-3-yl]amino}-2H-pyrazolo[3,4-d][1,3]thiazol-2-yl)-3,5-dimethylphenol] | – | 46 nM | > 10000 nM |
| COCCN(c1nc2nn(-c3c(C)cc(C)cc3O)cc2s1)[C@@H]1CCCNC1 [Example 37, 2-(5-{(2-methoxyethyl)[(3R)-piperidin-3-yl]amino}-2H-pyrazolo[3,4-d][1,3]thiazol-2-yl)-3,5-dimethylphenol] | > 30000 nM | 120 nM | – |
| Cc1cc(C)c(-n2cc3sc(NCC4(F)CCC4)nc3n2)c(O)c1 [Example 138, 2-(5-{[(1-fluorocyclobutyl)methyl]amino}-2H-pyrazolo[3,4-d][1,3]thiazol-2-yl)-3,5-dimethylphenol] | > 10000 nM | 600 nM | – |
| Cc1cc(C)c(-n2cc3sc(N[C@@H]4CCN(C(=O)OC5CC5)C4)nc3n2)c(O)c1 [Example 153, cyclopropyl (3R)-3-{[2-(2-hydroxy-4,6-dimethylphenyl)-2H-pyrazolo[3,4-d][1,3]thiazol-5-yl]amino}pyrrolidine-1-carboxylate] | > 30000 nM | 270 nM | – |
| Cc1cc(C)c(-n2cc3sc(NCCN(C)C)nc3n2)c(O)c1 [Example 53, 2-(5-{[2-(dimethylamino)ethyl]amino}-2H-pyrazolo[3,4-d][1,3]thiazol-2-yl)-3,5-dimethylphenol] | > 30000 nM | 680 nM | – |
| Cc1cc(C)c(-n2cc3sc(NC4CCN(C)C4)nc3n2)c(O)c1 (stereo not drawn) [Example 92, 3,5-dimethyl-2-{5-[(1-methylpyrrolidin-3-yl)amino]-2H-pyrazolo[3,4-d][1,3]thiazol-2-yl}phenol] | > 30000 nM | 270 nM | – |
| Cc1cc(C)c(-n2cc3sc(NC4CCN(C(=O)C(C)(C)O)C4)nc3n2)c(O)c1 (stereo not drawn) [Example 102, 2-hydroxy-1-(3-{[2-(2-hydroxy-4,6-dimethylphenyl)-2H-pyrazolo[3,4-d][1,3]thiazol-5-yl]amino}pyrrolidin-1-yl)-2-methylpropan-1-one] | > 30000 nM | 280 nM | – |
| Cc1cc(C)c(-n2cc3sc(N[C@@H]4CCN(C)C(=O)C4)nc3n2)c(O)c1 [Example 137, (4R)-4-{[2-(2-hydroxy-4,6-dimethylphenyl)-2H-pyrazolo[3,4-d][1,3]thiazol-5-yl]amino}-1-methylpiperidin-2-one] | > 30000 nM | 1100 nM | – |
| CCc1cc(C)cc(O)c1-n1cc2sc(N[C@@H]3C[C@@H](F)CN(C)C3)nc2n1 [Example 20, 3-ethyl-2-(5-{[(3R,5R)-5-fluoro-1-methylpiperidin-3-yl]amino}-2H-pyrazolo[3,4-d][1,3]thiazol-2-yl)-5-methylphenol] | > 30000 nM | 9.2 nM | – |
| COC(=O)N1CC[C@H](Nc2nc3nn(-c4c(C)cc(C)cc4O)cc3s2)C1 [Example 156, methyl (3S)-3-{[2-(2-hydroxy-4,6-dimethylphenyl)-2H-pyrazolo[3,4-d][1,3]thiazol-5-yl]amino}pyrrolidine-1-carboxylate] | > 10000 nM | 2000 nM | – |
| Cc1cc(C)c(-n2cc3sc(NC4CCN(C(=O)CC(F)F)C4)nc3n2)c(O)c1 (stereo not drawn) [Example 68, 3,3-difluoro-1-(3-{[2-(2-hydroxy-4,6-dimethylphenyl)-2H-pyrazolo[3,4-d][1,3]thiazol-5-yl]amino}pyrrolidin-1-yl)propan-1-one] | > 10000 nM | 220 nM | – |
| Cc1cc(C)c(-n2cc3sc(N[C@@H]4CCCC[C@H]4O)nc3n2)c(O)c1 [Example 162, 2-(5-{[(1R,2R)-2-hydroxycyclohexyl]amino}-2H-pyrazolo[3,4-d][1,3]thiazol-2-yl)-3,5-dimethyl-phenol] | > 30000 nM | 450 nM | – |
| CCN1C[C@H](F)C[C@@H](Nc2nc3nn(-c4c(C)cc(C)cc4O)cc3s2)C1 [Example 7, 2-(5-{[(3R,5R)-1-ethyl-5-fluoropiperidin-3-yl]amino}-2H-pyrazolo[3,4-d][1,3]thiazol-2-yl)-3,5-dimethylphenol] | > 30000 nM | 13 nM | – |
| Cc1cc(C)c(-n2cc3sc(NC4CC(=O)N(C)C4)nc3n2)c(O)c1 (stereo not drawn) [Example 95, 4-{[2-(2-hydroxy-4,6-dimethylphenyl)-2H-pyrazolo[3,4-d][1,3]thiazol-5-yl]amino}-1-methylpyrrolidin-2-one] | > 30000 nM | 1300 nM | – |
| Cc1cc(C)c(-n2cc3sc(NC4CCN(S(C)(=O)=O)CC4)nc3n2)c(O)c1 [Example 128, 2-(5-{[1-(methanesulfonyl)piperidin-4-yl]amino}-2H-pyrazolo[3,4-d][1,3]thiazol-2-yl)-3,5-dimethylphenol] | > 30000 nM | 1200 nM | – |
| Cc1cc(C)c(-n2cc3sc(N[C@@H]4CCOC[C@H]4O)nc3n2)c(O)c1 [Example 167, 1,5-anhydro-2,3-dideoxy-3-{[2-(2-hydroxy-4,6-dimethylphenyl)-2H-pyrazolo[3,4-d][1,3]thiazol-5-yl]amino}-D-threo-pentitol] | > 30000 nM | 350 nM | – |
| Cc1cc(C)c(-n2cc3sc(NC(CO)CO)nc3n2)c(O)c1 [Example 168, 2-{[2-(2-hydroxy-4,6-dimethylphenyl)-2H-pyrazolo[3,4-d][1,3]thiazol-yl]amino}propane-1,3-diol] | > 30000 nM | 370 nM | – |
| CNC(=O)N1CCC(Nc2nc3nn(-c4c(C)cc(C)cc4O)cc3s2)C1 (stereo not drawn) [Example 86, 3-{[2-(2-hydroxy-4,6-dimethylphenyl)-2H-pyrazolo[3,4-d][1,3]thiazol-5-yl]amino}-N-methylpyrrolidine-1-carboxamide] | > 30000 nM | 300 nM | – |
| Cc1cc(O)c(-n2cc3sc(NCC(C)(C)O)nc3n2)c(C2CC2(F)F)c1 (stereo not drawn) [Example 148] | > 30000 nM | 130 nM | – |
| Cc1cc(C)c(-n2cc3sc(NC4CCCN(S(C)(=O)=O)C4)nc3n2)c(O)c1 (stereo not drawn) [Example 112, 2-(5-{[1-(methanesulfonyl)piperidin-3-yl]amino}-2H-pyrazolo[3,4-d][1,3]thiazol-2-yl)-3,5-dimethylphenol] | > 10000 nM | 550 nM | – |
| Cc1cnc(-n2cc3sc(N[C@@H]4CCCN(C)C4)nc3n2)c(O)c1 [Example 63, 5-methyl-2-(5-{[(3R)-1-methylpiperidin-3-yl]amino}-2H-pyrazolo[3,4-d][1,3]thiazol-2-yl)pyridin-3-ol] | > 10000 nM | 3400 nM | – |
| Cc1cc(C)c(-n2cc3sc(NCC4(O)CC4)nc3n2)c(O)c1 [Example 84, 2-(5-{[(1-hydroxycyclopropyl)methyl]amino}-2H-pyrazolo[3,4-d][1,3]thiazol-2-yl)-3,5-dimethylphenol] | > 30000 nM | 380 nM | – |
| Cc1cc(C)c(-n2cc3sc(N[C@H]4CN(C(=O)CC5CC5)C[C@@H]4F)nc3n2)c(O)c1 (racemic) [Example 106, racemic mixture of 2-cyclopropyl-1-[(3R,4R)-3-fluoro-4-{[2-(2-hydroxy-4,6-dimethylphenyl)-2H-pyrazolo[3,4-d][1,3]thiazol-5-yl]amino}pyrrolidin-1-yl]ethan-1-one and 2-cyclopropyl-1-[(3S,4S)-3-fluoro-4-{[2-(2-hydroxy-4,6-dimethylphenyl)-2H-pyrazolo[3,4-d][1,3]thiazol-5-yl]amino}pyrrolidin-1-yl]ethan-1-one] | > 30000 nM | 310 nM | – |
| Cc1cc(C)c(-n2cc3sc(N[C@H]4C[C@@](C)(O)C4)nc3n2)c(O)c1 [Example 31, 2-{5-[(cis-3-hydroxy-3-methylcyclobutyl)amino]-2H-pyrazolo[3,4-d][1,3]thiazol-2-yl}-3,5-dimethylphenyl] | > 30000 nM | 650 nM | – |
| Cc1cc(C)c(-n2cc3sc(NC4CCC(=O)N(C)C4)nc3n2)c(O)c1 (stereo not drawn) [Example 115, 5-{[2-(2-hydroxy-4,6-dimethylphenyl)-2H-pyrazolo[3,4-d][1,3]thiazol-5-yl]amino}-1-methylpiperidin-2-one] | > 30000 nM | 490 nM | – |
